Experimental data reported in US11129782B2, “Derivatives of PPD useful for coloring hair and skin” (National University of Singapore, priority 2017, dated 2021).
Several values for one entry are separate records, joined by “and”; a condition that tells them apart may be missing. Identical values can stand only once.

Key:
[1] = Skin permeation in vertical Franz diffusion cells; type: in vitro ADME, porcine; conditions: 8 h; for recovery at 8 h, 1 % w/v: pig, read-out: % Parent compound Recovery (mean); for Penetration profile PPD vs derivatives (times less than PPD): ratio of PPD penetration to that of the compound
Procedure: Porcine ears were generously provided by the NUS Department of Surgery. The ears were frozen at −80° C. until use (up to 3 months) and thawed at room temperature on the day preceding the experiment. Prior to the experiment, the skin was separated from the cartilage and dermatomed to a thickness of ˜1.0 mm using an Acculan™ 3Ti dermatome (Aesculap, Inc., B. Braun, USA).
The PPD and derivatives were dissolved in deionized water at 1% w/v. The PPD and PPD derivatives 1-5 solutions were purged with argon gas to minimize oxidation of the donor solution.
Skin penetration studies were carried out using vertical Franz diffusion cells (PermeGear, USA) immersed in a 37° C. water bath. The donor and receptor volumes were 900 µL and 5 mL, respectively; the mean surface area of penetration was 0.64 cm^2. Upon insertion of the skin pieces into the Franz cells, the skin was equilibrated for 45 min with PBS in the receptor compartment. After equilibration, the skin's trans-epidermal water loss (TEWL) was measured using an Aquaflux AF300 (Biox, UK) to assess the integrity of the skin's stratum corneum barrier. The donor solution, consisting of PPD or derivative 1-5 (n=3 Franz cells each), was then added to the donor compartment and the penetration experiments were conducted for 8 h. The receptor solutions were continuously stirred with magnetic stirrers. At fixed time points, aliquots of 200 μL were taken from the receptor solution of each cell and the receptor solution topped up with 200 μL of fresh PBS. At the end of the experiment, the donor and receptor solutions were removed and the cells dismantled. For the purpose of mass balance on the PPD, PPD derivatives 1-5 the skin pieces and swabs of their outer surfaces were collected and stored in acetonitrile for PPD or derivative 1-5 extraction. The donor solution as well as PBS used to thoroughly wash each part of the Franz cells were also collected.
PPD, PPD derivatives 1-5 and metabolite concentrations in all permeation and mass balance samples were measured by LCMS. PPD steady state fluxes and permeability coefficients were calculated by fitting the solution to Fick's second law of diffusion at the steady state to the linear part of each experimental cumulative amount curve.
The validated method LCMS was applied to quantify PPD, PPD derivative 1-5 and metabolites from skin permeation study samples. FIGS. 3 and 4 show LCMS spectra for the identification of PPD and PPD derivatives 1 and 2 and metabolites from skin permeation study experiment.

[2] = system: lysine peptide (Ac-RFAAKAA-COOH); experiment: Direct Peptide Reactivity Assay, lysine peptide; conditions: for % of Lysine depletion, Avg / % of Lysine depletion, Rep 2 / % of Lysine depletion, Rep 3 / Reactivity Class: 1:50; for % of Lysine depletion, Rep 1: peptide 0.02 mM : test chemical 1 mM (1:50); for Reactivity Class: lysine
Procedure: (§1) The mass spectrometric analysis was performed by use of a AB SCIEX QTRAP 5500 tandem mass spectrometry (MS/MS) system (AB SCIEX, Framingham, Mass., USA) operating in triple quadrupole positive mode (ESI+) equipped with an AB Sciex Turbo Ion Spray interface. Acquisition and analysis of data were performed with Analyst software ver. 1.6.2 (Applied Biosystems).

HaCaT cells = experiment: In vitro cell cytotoxicity (MTT) assay on HaCaT cells; type: cell-based, human; conditions: for IC50: 72 h incubation, MTT
Text: HaCaT (human, adult, low calcium, high temperature, human adult skin keratinocytes) cells were obtained from the IMB (Institute of Medical Biology) Skin Cell Bank. Fetal bovine serum (FBS), Dulbecco's minimum essential medium (DMEM) and trypsin EDTA solution were purchased from GE healthcare life sciences, Utah. Penicillin/streptomycin, dimethyl sulfoxide (DMSO), and phosphate buffered saline (PBS) were from Fisher Scientific (Singapore). Para-phenylenediamine (PPD) was purchased from Sigma Aldrich (Singapore). PPD analogues such as Dimer, trimer, ethyl hexyl para-phenylenediamine (EHPPD), hexyl para-phenylenediamine (HPPD), Bandrowski base (BB) were synthesized in house.
Cell viability was essentially determined using the MTT assay as described in the literature. The HaCaT cells were grown in DMEM with 10% FBS and 1% penicillin/streptomycin. The cells in T-75 cm^2 culture flasks were incubated with 5% CO2 at 37° C. in a humidified incubator. The HaCaT cells were grown to expected confluency and then they were harvested by trypsinizing the cell with 0.25% trypsin/EDTA and incubated at 37° C. for 5 min to obtain the complete cell detachment. After the incubation, cell pellets were resuspended, and washed twice with 1×PBS. The cell suspension in 1×PBS was counted and adjusted to 1×10^5/mL. A HaCaT keratinocyte suspension (100 μL in 1×PBS) with a cell concentration of 1×10^5 cells/mL) and a test solution (100 μL in milli-Q water) were combined in each well of two 96-well plates. Test solutions with a desired concentration were prepared by serial dilutions of the stock solutions with 1×PBS.
For the cytotoxicity experiment, cells were seeded at a density of 5×10^3 in 200 ul of medium into each well of 96-well plates. Cells were seeded as three sets of four replicates for each concentration. After 24 h of incubation, the cells were washed with PBS and cultured for 72 h with 200 ul of 10% FBS containing DMEM medium, together with the different concentrations of the test compounds ranging from 500 μM to 1.9 μM for PPD and analogues 1-5 and standard in a serial dilution. Then the medium was removed and 100 μl of MTT [3-(4,5-dimethylthiazol-2yl)-2,5-diphenyl-2H-tetrazolium bromide](1 mg/ml) (Alfa Aesar, Singapore) in PBS was added. At the end of 4 h incubation, the plates were removed from the incubator and plates were shaken for 5 min. The absorbance at 570 nm was determined using Bio-Tek plate reader. The cell viability rates were calculated from absorbance readings and represented as percentages of control value (untreated cells).

[3] = system: cysteine and lysine peptides; experiment: Direct Peptide Reactivity Assay, mean of cysteine and lysine depletion (FIG. 12); conditions: for Sensitizing potential predicted from mean peptide depletion: cysteine 1:10 / lysine 1:50 model
Procedure: Direct reactivity of test chemical to lysine-based synthetic peptide was determined in reactions containing 100 mM ammonium acetate buffer (pH 10.2). The final concentration of lysine peptide was 20 μM in a final reaction volume of 0.3 ml. Direct reactivity of test chemicals to cysteine-based synthetic peptide was determined in 100 mM Sodium Phosphate buffer of pH 7.5.
For the DPRA, incubation mixtures were prepared using each peptide to test compound ratios of both 1:10 for cysteine peptide and 1:50 for lysine peptide, according to Table 19. […] Sample reactions were initiated by adding 3 μl of a test chemical stock solution for cysteine and 15 μl stock solution for lysine peptide. These mixtures were then placed in a temperature-controlled shaking incubator at 25° C.
At each time point (20 mins/24 hours), the incubation mixtures were quenched with 75 μL of 95% ACN/H2O, and mildly vortexed (600 rpm, 3 seconds). For Lysine DPRA experiment, 10 μl of aliquot was diluted with 2% ACN/H2O, vortexed and stored at −80° C. until analysis by LC-MS/MS. For cysteine DPRA, an additional step was performed. 10 μl of cysteine reaction mixture, at time points 20 min and 24 h were diluted in 180 μl of 2% ACN/H2O. To which, a 10 μl aliquot of a 16 mM dithiothreitol solution (prepared in water) was then added, and samples were heated in a 45° C. oven for 30 min, then allowed to cool to room temperature prior to analysis. The peptide depletion (PD) percentage was obtained using this equation.

[4] = system: cysteine peptide (Ac-RFAACAA-COOH); experiment: Direct Peptide Reactivity Assay, cysteine peptide; conditions: for % of Cysteine depletion, Avg / % of Cysteine depletion, Rep 2 / % of Cysteine depletion, Rep 3 / Reactivity Class: 1:10; for % of Cysteine depletion, Rep 1: peptide 0.02 mM : test chemical 0.2 mM (1:10); for Reactivity Class: cysteine
Procedure: For cysteine DPRA, an additional step was performed.
as §1

ILT3 = ILT3 surface expression on THP-1 by flow cytometry; type: cell-based, human; conditions: in comparison to DCNB
Procedure: (§2) For cytokine profiling in THP-1, supernatants from wells were collected and then used for cytokine analysis by a Chemokine immunosorbent assay Bio-legend ELISA Max kit. The levels of available IL-8 protein from THP-1 cell supernatants was estimated using this kit which are regulated upon activation of THP-1 model. Surface receptor expression of human CD-86, CD-54, MHC-I and IL-T3 were analyzed by flow cytometry using standard BD FACS analyzer with PE and FITC fluorescent labeled antibodies from Biolegend and e Bioscience.
(§3) In order to understand the effect of modified PPD hairdyes on THP-1 immune sensitization, a certain degree of Cytotoxicity at CV75% viable where 25% cell death is required before evaluation of supernatants in THP-1 models for expression of cytokine IL-8 and receptor expression of CD86, CD54, MHC-I and IL-T3 surface receptors upon treatment with standard PPD and modified hair dye compounds. Most allergens show a specific dose-dependent alteration of CD86 and/or CD54 expression or secretion of cytokine profiles. But depending on chemical, the alteration pattern may vary.

IL-8 = IL-8 ELISA on THP-1 cell supernatants; type: cell-based, human; conditions: preliminary ELISA, CV75
Procedure: as §2, §3

Structure (SMILES)	% Parent compound Penetrated (mean) ([1]; 1% W/V applied)	% converted to metabolite (mean) ([1]; 1% W/V applied)	recovery at 8 h, 1 % w/v ([1]; 1% W/V applied)	% of Lysine depletion, Avg ([2]; 20 min)	% of Lysine depletion, Rep 2 ([2]; 20 min)	% of Lysine depletion, Rep 3 ([2]; 20 min)	% of Lysine depletion, Rep 1 ([2]; 20 min)	% of Lysine depletion, Avg ([2]; 24 h)	% of Lysine depletion, Rep 2 ([2]; 24 h)	% of Lysine depletion, Rep 3 ([2]; 24 h)	% of Lysine depletion, Rep 1 ([2]; 24 h)	Reactivity Class ([2]; 20 min)	Reactivity Class ([2]; 24 h)	IC50 (HaCaT cells; Homo sapiens, HaCaT, 72 h)	Sensitizing potential predicted from mean peptide depletion [3]	% of Cysteine depletion, Avg ([4]; 20 min)	% of Cysteine depletion, Rep 2 ([4]; 20 min)	% of Cysteine depletion, Rep 3 ([4]; 20 min)	% of Cysteine depletion, Rep 1 ([4]; 20 min)	% of Cysteine depletion, Avg ([4]; 24 h)	other results
CCCCCCOc1cc(N)ccc1N [PPD derivative 4, 2-hexyloxy-1,4-diaminobenzene]	0.000322%	0.0121%	94.3%	1.1%	0.845%	1.41%	1.13%	13.4%	15%	13.9%	11.3%	No or Minimal	Low	34.8 µM	moderate sensitizer	32.8%	31.8%	33.8%	30.8%	40.8%	Penetration profile PPD vs derivatives (times less than PPD) ([1]; listed as PPD 4): 503.1; IC50 (HaCaT cells): 34.8 µM; % of Cysteine depletion, Rep 2 ([4]; 24 h): 41%; % of Cysteine depletion, Rep 3 ([4]; 24 h): 41.5%; % of Cysteine depletion, Rep 1 ([4]; 24 h): 40%; Reactivity Class ([4]; 20 min, listed as Derivative 4): Moderate; Reactivity Class ([4]; 20 min, listed as derivative 4): moderate; Reactivity Class ([4]; 24 h): Moderate
Nc1ccc(Nc2ccc(Nc3ccc(N)cc3)cc2)cc1 [PPD derivative 2, N^1,N^4-bis(4-aminophenyl)-1,4-benzenediamine]	0.00173%	0.008%	96.4%	11.2%	11.8%	11.8%	10.1%	9.08%	9.79%	8.28%	8.97%	Low	Low	4.14 µM	high sensitizing agents	54.0%	53.6%	52.6%	55.6%	64.1%	ILT3 (inhibitory receptor) expression (ILT3): increased; Penetration profile PPD vs derivatives (times less than PPD) ([1]; listed as PPD 2): 93 and 93.6; Fold increase in cytotoxicity compared to PPD 1 (HaCaT cells): 6 fold; % of Cysteine depletion, Rep 2 ([4]; 24 h): 65.6%; % of Cysteine depletion, Rep 3 ([4]; 24 h): 61.2%; % of Cysteine depletion, Rep 1 ([4]; 24 h): 65.6%; Reactivity Class ([4]; 20 min): High; Reactivity Class ([4]; 24 h): High
COCc1cc(N)ccc1N [MEPPD, 2-(methoxymethyl)benzene-1,4,-diamine, reference compound]	0.02%	0.019%	–	–	–	–	–	–	–	–	–	–	–	–	strong sensitizer	–	–	–	–	–	IL-8 expression (IL-8): increased expression; ILT3 (inhibitory receptor) expression (ILT3): increased; % Parent compound Recovery (mean) ([1]; 1% W/V applied): 95.39%; Penetration profile PPD vs derivatives (times less than PPD) [1]: 8 and 8.1; Penetration profile PPD vs derivatives (times less than PPD) ([1]; listed as ME-PPD): about 7.5; Fold increase in IC50 compared to PPD (HaCaT cells): 19 fold; IC50 (HaCaT cells): 544 µM; Mean peptide depletion ([3]; mean of cysteine (1:10) and lysine (1:50), FIG. 12): 53.2%
O=[N+]([O-])c1ccc(Cl)c([N+](=O)[O-])c1 [DNCB, reference compound]	–	–	–	–	–	–	–	–	–	–	–	–	–	–	–	–	–	–	–	–	IL-8 expression (IL-8): increased expression
CCCCC(CC)COc1cc(N)ccc1N (centres unmarked) [PPD derivative 3, 2-((2-ethylhexyl)oxy)benzene-1,4-diamine]	0.00045%	0.0123%	94.5%	6.2%	5.63%	7.89%	5.07%	15.48%	19.7%	13.8%	12.8%	No or Minimal	Low	31 µM	moderate sensitizer	31.9%	32%	31.4%	32.4%	32.7%	Penetration profile PPD vs derivatives (times less than PPD) ([1]; listed as PPD 3): 360; % of Cysteine depletion, Rep 2 ([4]; 24 h): 31.7%; % of Cysteine depletion, Rep 3 ([4]; 24 h): 31.8%; % of Cysteine depletion, Rep 1 ([4]; 24 h): 34.8%; Reactivity Class ([4]; 20 min, listed as Derivative 3): Moderate; Reactivity Class ([4]; 20 min, listed as derivative 3): moderate; Reactivity Class ([4]; 24 h): Moderate
